The values below come from patent US20260347338A1, “PYRIMIDINE/PYRIDINE DERIVATIVES OR SALTS THEREOF AND PHARMACEUTICAL COMPOSITIONS COMPRISING THE SAME” (YUHAN CORPORATION, priority 2023, published 2026).

Each structure is given as a SMILES string. Counter-ions that a name gives are not always drawn.

The assay deals with T1, human recombinant HPK1 (Homo sapiens, UniProt Q92918).
T1 construct: purchased BPS Bioscience
T1 sequence (Q92918 whole entry): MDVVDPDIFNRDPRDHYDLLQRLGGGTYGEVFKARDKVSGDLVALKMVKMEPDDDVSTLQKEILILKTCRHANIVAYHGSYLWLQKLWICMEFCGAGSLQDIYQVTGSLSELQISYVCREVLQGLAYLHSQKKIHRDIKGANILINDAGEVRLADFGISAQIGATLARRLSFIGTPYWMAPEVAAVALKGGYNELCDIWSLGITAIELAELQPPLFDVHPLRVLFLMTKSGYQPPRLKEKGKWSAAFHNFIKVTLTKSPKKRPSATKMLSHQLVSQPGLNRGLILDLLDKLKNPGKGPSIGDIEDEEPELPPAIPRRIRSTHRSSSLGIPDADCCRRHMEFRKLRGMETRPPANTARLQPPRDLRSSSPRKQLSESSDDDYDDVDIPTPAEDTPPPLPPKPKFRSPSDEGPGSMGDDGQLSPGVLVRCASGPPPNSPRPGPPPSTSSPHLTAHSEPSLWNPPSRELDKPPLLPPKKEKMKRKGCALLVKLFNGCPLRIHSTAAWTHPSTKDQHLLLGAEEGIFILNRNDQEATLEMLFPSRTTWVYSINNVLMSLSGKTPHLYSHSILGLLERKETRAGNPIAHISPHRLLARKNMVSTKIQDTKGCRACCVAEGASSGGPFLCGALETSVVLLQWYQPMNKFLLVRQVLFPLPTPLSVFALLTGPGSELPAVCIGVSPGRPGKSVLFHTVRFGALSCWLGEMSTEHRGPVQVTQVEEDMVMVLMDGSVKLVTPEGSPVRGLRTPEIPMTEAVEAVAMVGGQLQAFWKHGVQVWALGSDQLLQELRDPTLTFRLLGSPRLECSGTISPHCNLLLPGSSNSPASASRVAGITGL
The assay can be described thus: Inhibitory activity against human recombinant HPK1 (TR-FRET). Type of assay: biochemical. Conditions: ULight-p70S6K peptide, ATP at Km, room temperature, 1 hour, 0.32 to 1000 nM compound. The essentials: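 IC50 classes A–D use 10, 50 and 100 nM cut-offs, derived from TR-FRET signal inhibition relative to DMSO controls. Human recombinant HPK1 phosphorylated ULight-p70S6K peptide at Km ATP for 1 h, room temperature, pH 7.4; test range 0.32–1000 nM final, detection with Eu-labelled antibody after EDTA quench.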
(In TR-FRET formats the signal depends on donor and acceptor labels being close together.)
Broadly, the IC50 is the point on the concentration scale where inhibition reaches its midpoint. In the case of `COc1cc(F)cc(F)c1-c1nc(Nc2cc(N3CCC[C@H](O)C3)c(CCC3CCOCC3)cn2)ccc1N` [Example 228, (3S)-1-(2-((5-amino-6-(2,4-difluoro-6-methoxyphenyl)pyridin-2-yl)amino)-5-(2-(tetrahydro-2H-pyran-4-yl)ethyl)pyridin-4-yl)piperidin-3-ol], the 50% inhibitory concentration (IC50) lay within 10 to 50 nM.

Turning to `COc1cccc(F)c1-c1nccc(Nc2cc(N3CCC[C@H](N)C3)c(-c3cnn(CC(C)(C)OC)c3)cn2)n1` [Example 229, (S)-N-(4-(3-aminopiperidin-1-yl)-5-(1-(2-methoxy-2-methylpropyl)-1H-pyrazol-4-yl)pyridin-2-yl)-2-(2-fluoro-6-methoxyphenyl)pyrimidin-4-amine], the IC50 is at most 10 nM.

As to `COCCOc1ccc(-c2cnc(Nc3ccnc(-c4c(F)cccc4OC)n3)cc2N2CCC[C@H](N)C2)cn1` [Example 230, (S)-4-(3-aminopiperidin-1-yl)-N-(2-(2-fluoro-6-methoxyphenyl)pyrimidin-4-yl)-6′-(2-methoxyethoxy)-[3,3′-bipyridin]-6-amine], the IC50 is at most 10 nM.

As for `COc1cc(C(=O)N2CC(F)(F)C2)cc(F)c1-c1nccc(Nc2cc(N3CCC[C@H](O)C3)c(-c3cnn(C(F)F)c3)cn2)n1` [Example 231, (S)-(3,3-difluoroazetidin-1-yl)(4-(4-((5-(1-(difluoromethyl)-1H-pyrazol-4-yl)-4-(3-hydroxypiperidin-1-yl)pyridin-2-yl)amino)pyrimidin-2-yl)-3-fluoro-5-methoxyphenyl)methanone], the IC50 was at most 10 nM.

Regarding `COc1cc(C(=O)N2CC[C@H](F)C2)cc(F)c1-c1nccc(Nc2cc(N3CCC[C@H](O)C3)c(-c3cnn(C(F)F)c3)cn2)n1` [Example 232, (4-(4-((5-(1-(difluoromethyl)-1H-pyrazol-4-yl)-4-((S)-3-hydroxypiperidin-1-yl)pyridin-2-yl)amino)pyrimidin-2-yl)-3-fluoro-5-methoxyphenyl)((S)-3-fluoropyrrolidin-1-yl)methanone], the IC50 is at most 10 nM.

Regarding `COc1cc(C(=O)N2CC[C@@H](F)C2)cc(F)c1-c1nccc(Nc2cc(N3CCC[C@H](O)C3)c(-c3cnn(C(F)F)c3)cn2)n1` [Example 233, (4-(4-((5-(1-(difluoromethyl)-1H-pyrazol-4-yl)-4-((S)-3-hydroxypiperidin-1-yl)pyridin-2-yl)amino)pyrimidin-2-yl)-3-fluoro-5-methoxyphenyl)((R)-3-fluoropyrrolidin-1-yl)methanone], the IC50 was at most 10 nM.

For `COc1cc(C(=O)N2CCC(F)(F)C2)cc(F)c1-c1nccc(Nc2cc(N3CCC[C@H](O)C3)c(-c3cnn(C(F)F)c3)cn2)n1` [Example 234, (S)-(4-(4-((5-(1-(difluoromethyl)-1H-pyrazol-4-yl)-4-(3-hydroxypiperidin-1-yl)pyridin-2-yl)amino)pyrimidin-2-yl)-3-fluoro-5-methoxyphenyl)(3,3-difluoropyrrolidin-1-yl)methanone], the concentration for half-maximal inhibition (IC50) was at most 10 nM.

`COc1cccc(F)c1-c1nccc(Nc2cc(N3CCC[C@H](N)C3)c(-c3cnn(CC(C)(C)O)c3)cn2)n1` [Example 235, (S)-1-(4-(4-(3-aminopiperidin-1-yl)-6-((2-(2-fluoro-6-methoxyphenyl)pyrimidin-4-yl)amino)pyridin-3-yl)-1H-pyrazol-1-yl)-2-methylpropan-2-ol hydrochloride]: the IC50 was at most 10 nM.

`COc1cccc(F)c1-c1nccc(Nc2cc(N3CCC[C@H](N)C3)c(-c3cnn(CCCN(C)C)c3)cn2)n1` [Example 236, (S)-N-(4-(3-aminopiperidin-1-yl)-5-(1-(3-(dimethylamino)propyl)-1H-pyrazol-4-yl)pyridin-2-yl)-2-(2-fluoro-6-methoxyphenyl)pyrimidin-4-amine hydrochloride]: the IC50 was at most 10 nM.

`COc1cccc(F)c1-c1nccc(Nc2cc(N3CCC[C@H](N)C3)c(-c3cnn(CC4CNC4)c3)cn2)n1` [Example 237, (S)-N-(4-(3-aminopiperidin-1-yl)-5-(1-(azetidin-3-ylmethyl)-1H-pyrazol-4-yl)pyridin-2-yl)-2-(2-fluoro-6-methoxyphenyl)pyrimidin-4-amine hydrochloride]: the IC50 was at most 10 nM.

In the case of `COc1cccc(F)c1-c1nccc(Nc2cc(N3CCC[C@H](N)C3)c(-c3cnn([C@@H]4CCNC4)c3)cn2)n1` [Example 238, N-(4-((S)-3-aminopiperidin-1-yl)-5-(1-((R)-pyrrolidin-3-yl)-1H-pyrazol-4-yl)pyridin-2-yl)-2-(2-fluoro-6-methoxyphenyl)pyrimidin-4-amine hydrochloride], the IC50 is at most 10 nM.

`COc1cccc(F)c1-c1nccc(Nc2cc(N3CCC[C@H](N)C3)c(-c3cnn([C@H]4CCNC4)c3)cn2)n1` [Example 239, N-(4-((S)-3-aminopiperidin-1-yl)-5-(1-((S)-pyrrolidin-3-yl)-1H-pyrazol-4-yl)pyridin-2-yl)-2-(2-fluoro-6-methoxyphenyl)pyrimidin-4-amine hydrochloride]: the half-maximal inhibitory concentration (IC50) was at most 10 nM.

On to `COc1cccc(F)c1-c1nccc(N(CCN(C)C)c2cc(N3CCC[C@H](N)C3)c(-c3ccc(N)nc3)cn2)n1` [Example 240, (S)-4-(3-aminopiperidin-1-yl)-N^6-(2-(dimethylamino)ethyl)-N^6-(2-(2-fluoro-6-methoxyphenyl)pyrimidin-4-yl)-[3,3′-bipyridin]-6,6′-diamine hydrochloride], for which the IC50 was at most 10 nM.

Turning to `COc1cccc(F)c1-c1nccc(Nc2cc(N3CCC[C@H](N)C3)c(-c3ccc(N4CCNCC4)nc3)cn2)n1` [Example 241, (S)-4-(3-aminopiperidin-1-yl)-N-(2-(2-fluoro-6-methoxyphenyl)pyrimidin-4-yl)-6′-(piperazin-1-yl)-[3,3′-bipyridin]-6-amine hydrochloride], the IC50 was at most 10 nM.

For the molecule `N[C@H]1CCCN(c2cc(Nc3ccnc(-c4c(F)cccc4CO)n3)ncc2-c2cnn(C(F)F)c2)C1` [Example 242, (S)-(2-(4-((4-(3-aminopiperidin-1-yl)-5-(1-(difluoromethyl)-1H-pyrazol-4-yl)pyridin-2-yl)amino)pyrimidin-2-yl)-3-fluorophenyl)methanol hydrochloride], the IC50 is at most 10 nM.

As to `N[C@H]1CCCN(c2cc(Nc3ccnc(-c4c(F)cccc4CO)n3)ncc2C#Cc2cnn(C(F)F)c2)C1` [Example 243, (S)-(2-(4-((4-(3-aminopiperidin-1-yl)-5-((1-(difluoromethyl)-1H-pyrazol-4-yl)ethynyl)pyridin-2-yl)amino)pyrimidin-2-yl)-3-fluorophenyl)methanol hydrochloride], the IC50 was at most 10 nM.

Turning to `COCC(C)(C)n1cc(-c2cnc(Nc3ccnc(-c4c(F)cccc4OC)n3)cc2N2CCC[C@H](N)C2)cn1` [Example 244, (S)-N-(4-(3-aminopiperidin-1-yl)-5-(1-(1-methoxy-2-methylpropan-2-yl)-1H-pyrazol-4-yl)pyridin-2-yl)-2-(2-fluoro-6-methoxyphenyl)pyrimidin-4-amine hydrochloride], the IC50 is at most 10 nM.

As for `COc1cccc(F)c1-c1nccc(Nc2cc(N3CCC[C@H](N)C3)c(-c3cnn(CC4CC(F)(F)C4)c3)cn2)n1` [Example 245, (S)-N-(4-(3-aminopiperidin-1-yl)-5-(1-((3,3-difluorocyclobutyl)methyl)-1H-pyrazol-4-yl)pyridin-2-yl)-2-(2-fluoro-6-methoxyphenyl)pyrimidin-4-amine hydrochloride], the IC50 was at most 10 nM.
